Reference: ChEMBL document CHEMBL1909046, “DrugMatrix in vitro pharmacology data”

Assays:
[1] = target: Sodium-dependent noradrenaline transporter (Homo sapiens, UniProt P23975); assay: DRUGMATRIX: Norepinephrine Transporter radioligand binding (ligand: [125I] RTI-55); assay type: cell membranes, MDCK, Membrane; conditions: Not Active = under 50% inhibition at 10 µM
[2] = DRUGMATRIX: Calcium Channel Type L, Benzothiazepine radioligand binding (ligand: [3H] Diltiazem); assay type: cell membranes, Rattus norvegicus, Wistar, Brain, Membrane; conditions: Not Active = under 50% inhibition at 10 µM
[3] = target: 5-hydroxytryptamine receptor 2B (Homo sapiens, UniProt P41595); assay type: cell membranes, CHO-K1, Membrane; conditions: cho-k1; note: in other assays of this panel Not Active means under 50% inhibition at 10 µM
[4] = target: Vascular endothelial growth factor receptor 1 (Homo sapiens, UniProt P17948); assay type: cell-based; conditions: huvec; note: in other assays of this panel Not Active means under 50% inhibition at 10 µM
[5] = target: Mitogen-activated protein kinase 3 (Homo sapiens, UniProt P27361); assay: DRUGMATRIX: Protein Serine/Threonine Kinase, ERK1 enzyme inhibition (substrate: Myelin Basic Protein); design: species or system Escherichia coli; conditions: Not Active = under 50% inhibition at 10 µM
Sequence of Mitogen-activated protein kinase 3 (P27361 whole entry): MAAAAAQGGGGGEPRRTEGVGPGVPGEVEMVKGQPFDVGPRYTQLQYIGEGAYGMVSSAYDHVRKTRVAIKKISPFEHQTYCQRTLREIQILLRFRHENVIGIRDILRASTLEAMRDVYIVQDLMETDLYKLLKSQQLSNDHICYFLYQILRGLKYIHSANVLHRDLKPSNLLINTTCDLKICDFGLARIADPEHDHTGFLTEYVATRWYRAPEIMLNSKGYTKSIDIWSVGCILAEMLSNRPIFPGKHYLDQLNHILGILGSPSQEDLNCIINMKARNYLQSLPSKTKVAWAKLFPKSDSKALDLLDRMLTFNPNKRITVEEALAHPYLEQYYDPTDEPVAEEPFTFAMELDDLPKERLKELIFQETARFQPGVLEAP

Sequence of Vascular endothelial growth factor receptor 1 (P17948 whole entry): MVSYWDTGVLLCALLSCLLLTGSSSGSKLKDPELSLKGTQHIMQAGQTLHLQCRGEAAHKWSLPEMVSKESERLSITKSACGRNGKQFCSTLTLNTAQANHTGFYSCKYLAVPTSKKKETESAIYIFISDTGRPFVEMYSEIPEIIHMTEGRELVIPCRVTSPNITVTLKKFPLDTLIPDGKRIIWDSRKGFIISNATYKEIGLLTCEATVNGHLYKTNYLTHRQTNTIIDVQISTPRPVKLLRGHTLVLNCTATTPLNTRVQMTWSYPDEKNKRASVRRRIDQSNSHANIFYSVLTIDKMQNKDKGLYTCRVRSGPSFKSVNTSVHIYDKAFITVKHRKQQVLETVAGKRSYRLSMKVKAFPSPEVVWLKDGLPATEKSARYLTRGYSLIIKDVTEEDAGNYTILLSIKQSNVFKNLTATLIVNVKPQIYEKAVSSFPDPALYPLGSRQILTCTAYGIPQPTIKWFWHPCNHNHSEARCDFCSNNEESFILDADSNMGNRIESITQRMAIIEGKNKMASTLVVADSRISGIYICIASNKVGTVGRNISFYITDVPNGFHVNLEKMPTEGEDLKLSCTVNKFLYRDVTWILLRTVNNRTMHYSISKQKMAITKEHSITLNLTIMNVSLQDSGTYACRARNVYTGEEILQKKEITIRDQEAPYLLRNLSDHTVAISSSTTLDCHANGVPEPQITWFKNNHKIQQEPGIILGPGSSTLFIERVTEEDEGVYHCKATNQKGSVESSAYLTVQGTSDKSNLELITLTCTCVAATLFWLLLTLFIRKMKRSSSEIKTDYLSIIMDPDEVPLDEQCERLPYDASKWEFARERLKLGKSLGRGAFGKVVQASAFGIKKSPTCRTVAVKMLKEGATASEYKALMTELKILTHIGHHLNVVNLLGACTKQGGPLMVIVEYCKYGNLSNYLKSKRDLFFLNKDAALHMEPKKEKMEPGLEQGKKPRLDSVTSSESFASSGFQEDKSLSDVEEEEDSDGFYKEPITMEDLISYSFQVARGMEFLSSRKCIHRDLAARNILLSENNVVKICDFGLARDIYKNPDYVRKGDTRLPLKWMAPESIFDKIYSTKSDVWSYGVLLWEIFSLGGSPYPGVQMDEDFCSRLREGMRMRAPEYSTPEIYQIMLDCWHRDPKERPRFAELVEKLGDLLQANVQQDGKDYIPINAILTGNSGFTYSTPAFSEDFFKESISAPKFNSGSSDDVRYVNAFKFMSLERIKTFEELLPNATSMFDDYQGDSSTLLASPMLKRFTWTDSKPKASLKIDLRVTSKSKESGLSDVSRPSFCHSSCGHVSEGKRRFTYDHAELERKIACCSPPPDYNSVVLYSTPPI
Sequence of Sodium-dependent noradrenaline transporter (P23975 whole entry): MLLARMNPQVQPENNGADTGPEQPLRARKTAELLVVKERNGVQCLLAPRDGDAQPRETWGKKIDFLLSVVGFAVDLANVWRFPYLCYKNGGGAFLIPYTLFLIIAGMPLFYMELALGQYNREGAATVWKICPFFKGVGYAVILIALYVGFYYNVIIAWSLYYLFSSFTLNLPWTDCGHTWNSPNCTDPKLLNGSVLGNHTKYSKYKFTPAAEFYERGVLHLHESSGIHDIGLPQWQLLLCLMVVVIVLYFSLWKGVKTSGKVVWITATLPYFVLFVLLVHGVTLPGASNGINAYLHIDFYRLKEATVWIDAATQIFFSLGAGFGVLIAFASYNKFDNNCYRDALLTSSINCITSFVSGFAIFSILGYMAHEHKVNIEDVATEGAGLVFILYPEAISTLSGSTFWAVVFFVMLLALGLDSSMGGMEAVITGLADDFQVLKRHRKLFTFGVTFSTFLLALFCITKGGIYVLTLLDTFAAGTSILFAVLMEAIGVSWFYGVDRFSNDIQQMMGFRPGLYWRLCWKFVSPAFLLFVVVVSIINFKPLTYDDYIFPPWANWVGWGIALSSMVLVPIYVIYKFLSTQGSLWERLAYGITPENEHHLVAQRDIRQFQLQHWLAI
Sequence of 5-hydroxytryptamine receptor 2B (P41595 whole entry): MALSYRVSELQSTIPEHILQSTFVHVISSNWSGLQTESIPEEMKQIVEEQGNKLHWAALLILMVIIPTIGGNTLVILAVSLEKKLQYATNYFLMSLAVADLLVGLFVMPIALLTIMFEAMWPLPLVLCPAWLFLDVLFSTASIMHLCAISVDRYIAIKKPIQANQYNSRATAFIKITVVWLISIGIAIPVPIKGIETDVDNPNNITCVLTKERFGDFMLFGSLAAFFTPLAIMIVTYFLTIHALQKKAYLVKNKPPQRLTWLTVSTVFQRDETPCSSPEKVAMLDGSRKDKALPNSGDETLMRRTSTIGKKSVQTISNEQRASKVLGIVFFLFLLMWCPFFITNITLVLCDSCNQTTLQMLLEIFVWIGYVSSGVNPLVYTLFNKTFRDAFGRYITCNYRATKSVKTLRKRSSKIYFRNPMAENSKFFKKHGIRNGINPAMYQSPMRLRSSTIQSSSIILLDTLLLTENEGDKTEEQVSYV

COc1ccnc(C[S+]([O-])c2nc3ccc(OC(F)F)cc3[nH]2)c1OC (configuration not stated) [PANTOPRAZOLE]
IC50 ([1]; mdck): Not Active | IC50 [2]: Not Active | Ki [2]: Not Active | IC50 [3]: Not Active | IC50 [4]: Not Active | IC50 [5]: Not Active

N=C(N)c1ccc(OCCCCCOc2ccc(C(=N)N)cc2)cc1 [PENTAMIDINE]
IC50 ([1]; read-out: IC50): 2210 nM | Ki ([1]; read-out: Ki): 2200 nM | IC50 ([2]; read-out: IC50): 2210 nM | Ki ([2]; read-out: Ki): 1960 nM | IC50 [3]: Not Active | IC50 [4]: Not Active | IC50 [5]: Not Active

NNCCc1ccccc1 [PHENELZINE]
IC50 ([1]; mdck): Not Active | IC50 [2]: Not Active | Ki [2]: Not Active | IC50 [3]: Not Active | IC50 [4]: Not Active | IC50 [5]: Not Active

CCc1ccc(CCOc2ccc(CC3SC(=O)NC3=O)cc2)nc1 (configuration not stated) [PIOGLITAZONE]
IC50 ([1]; mdck): Not Active | IC50 [2]: Not Active | Ki [2]: Not Active | IC50 [3]: Not Active | IC50 [4]: Not Active | IC50 [5]: Not Active

CCCNC(C)C(=O)Nc1ccccc1C (configuration not stated) [PRILOCAINE]
IC50 ([1]; mdck): Not Active | IC50 [2]: Not Active | Ki [2]: Not Active | IC50 [3]: Not Active | IC50 [4]: Not Active | IC50 [5]: Not Active

CCN(CC)CCNC(=O)c1ccc(N)cc1 [PROCAINAMIDE]
IC50 ([1]; mdck): Not Active | IC50 [2]: Not Active | Ki [2]: Not Active | IC50 [3]: Not Active | IC50 [4]: Not Active | IC50 [5]: Not Active

CCN(CC)CCCC(C)Nc1c2ccc(Cl)cc2nc2ccc(OC)cc12 (configuration not stated) [QUINACRINE]
IC50 ([1]; read-out: IC50): 2900 nM | Ki ([1]; read-out: Ki): 2870 nM | IC50 ([2]; read-out: IC50): 1080 nM | Ki ([2]; read-out: Ki): 956 nM | IC50 [3]: Not Active | IC50 [4]: Not Active | IC50 [5]: Not Active

C[C@]12C=CC(=O)C=C1CC[C@H]1[C@@H]3C[C@@H](O)[C@](O)(C(=O)CO)[C@@]3(C)C[C@H](O)[C@@]12F [TRIAMCINOLONE]
IC50 ([1]; mdck): Not Active | IC50 [2]: Not Active | Ki [2]: Not Active | IC50 [3]: Not Active | IC50 [4]: Not Active | IC50 [5]: Not Active

CC[C@]1(O)C[C@@H]2CN(CCc3c([nH]c4ccccc34)[C@@](C(=O)OC)(c3cc4c(cc3OC)N(C)[C@H]3[C@@](O)(C(N)=O)[C@H](O)[C@]5(CC)C=CCN6CC[C@]43[C@@H]65)C2)C1 [VINDESINE]
IC50 ([1]; mdck): Not Active | IC50 [2]: Not Active | Ki [2]: Not Active | IC50 [3]: Not Active | IC50 [4]: Not Active | IC50 [5]: Not Active

CCN(C(C)=O)c1cccc(-c2ccnc3c(C#N)cnn23)c1 [ZALEPLON]
IC50 ([1]; mdck): Not Active | IC50 [2]: Not Active | Ki [2]: Not Active | IC50 [3]: Not Active | IC50 [4]: Not Active | IC50 [5]: Not Active

COBALTOUS CHLORIDE
IC50 ([1]; mdck): Not Active | Ki ([1]; mdck): Not Active | IC50 [2]: Not Active | Ki [2]: Not Active | IC50 [3]: Not Active | Ki [3]: Not Active | IC50 [4]: Not Active | Ki [4]: Not Active | IC50 [5]: Not Active | Ki [5]: Not Active

COLISTIN
IC50 ([1]; mdck): Not Active | Ki ([1]; mdck): Not Active | IC50 [2]: Not Active | Ki [2]: Not Active | IC50 [3]: Not Active | Ki [3]: Not Active | IC50 [4]: Not Active | Ki [4]: Not Active | IC50 [5]: Not Active | Ki [5]: Not Active
